According to patent US20230083885A1, “MODULATORS OF INTEGRATED STRESS RESPONSE PATHWAY” (Praxis Biotech LLC, priority 2021, published 2023):
Like-named read-outs stand apart in the source and are kept apart here.

What was measured:
[1] = test system: Chinese hamster ovary (CHO) cells; assay: Protein synthesis assay (puromycin incorporation, Western blot); assay type: cell-based; settings: Cricetulus griseus, read-out: % Protein synthesis relative to untreated (1 μM test compound)
Experimental: Chinese hamster ovary (CHO) cells were maintained at 37° C. and 5% CO2 in Dulbecco's Modified Eagle's Media (DMEM) supplemented with 10% fetal bovine serum, 2 mM L-glutamine, 100 U/ml penicillin, and 100 μg/ml streptomycin. After reaching 80% of confluence, cells were detached and seeded on 6 well plates in complete media, allowed to recover overnight and treated for 2 hours with 1 μM of the test compound (to assess protein synthesis levels in unstressed condition), or for 2 hours with 300 nM Tg in the presence of 1 μM of the test compound (to assess the recovery of protein synthesis in a stressed condition). Cells with Tg alone were used as controls.
After the 2 hours treatments, media were replaced by adding 10 μg/ml puromycin (Sigma Aldrich #P8833) in complete media for 30 min. Media were removed and cells were lysed with SDS-PAGE lysis buffer. Lysates were transferred to 1.5 ml tubes and sonicated for 3 min and total protein amount were quantified using BCA Protein Assay Kit (Pierce). Equal amount of protein (30 μg) was loaded on SDS-PAGE gels.
A HRP-conjugated secondary antibody (Rockland) was employed to detect immune-reactive bands using enhanced chemiluminescence (ECL Western Blotting Substrate, Pierce). Quantification of protein bands was done by densitometry using ImageJ software.
The percentage levels were normalized to the media alone condition, which correspond to 100% protein synthesis. […]

[2] = test system: ATF4; assay: ATF4 expression inhibition assay (ATF4 5'UTR luciferase reporter, thapsigargin-stressed); assay type: cell-based; settings: Homo sapiens, HEK-293T, read-out: ATF4 inhibition
Experimental: The ATF4 reporter was prepared by fusing the human full length 5′UTR of ATF4 (NCBI Accession No. BC022088.2) upstream of the firefly luciferase coding sequence lacking the initiator methionine. The fused sequence was cloned into pLenti-EF1a-C-Myc-DDK-IRES-Puro cloning vector (Origen #PS100085) using standard methods.
HEK293T cells carrying the ATF4 luciferase reporter were plated on 96-well plates (Nunc) at 10,000 cells per well. Cells were treated two days after seeding with 100 nM thapsigargin (Tg) (Sigma-Aldrich #T9033) in the presence of different concentrations of selected compounds ranging from 0.1 nM to 10 μM. Cells without treatment or cells treated with Tg alone were used as controls. Assay plates containing cells were incubated for 3 hours at 37° C.
Luciferase reactions were performed using Luciferase Assay System (Promega #E1501) as specified by the manufacturer. Luminescence was read with an integration time of 1 s and a gain of 110 using a Cytation-5 multi-mode microplate reader (BioTek).

[3] = unstressed CHO cells (without Tg), 1 μM test compound, 2 hours, media alone = 100%
[4] = HEK293T cells carrying ATF4 luciferase reporter, 100 nM thapsigargin, 3 hours

Compound | activity at 1 µM [1, 3] | IC50 [2, 4] | activity at 1 µM ([1]; CHO, 2 h) | IC50 ([2]; 3 h)
O=C(COc1ccc(Cl)c(F)c1)NN1CCC(c2nnc(-c3ccc(Cl)cc3)o2)CC1 [Compound 35, 2-(4-chloro-3-fluorophenoxy)-N-(4-(5-(4-chlorophenyl)-1,3,4-oxadiazol-2-yl)piperidin-1-yl)acetamide] | 51.6% | < 10 nM | – | –
O=C(COc1ccc(Cl)c(F)c1)N[C@H]1CC[C@H](c2nnc(-c3ccc4cc(Cl)ccc4n3)o2)CC1 [Compound 14, trans-2-(4-chloro-3-fluorophenoxy)-N-(4-(5-(6-chloroquinolin-2-yl)-1,3,4-oxadiazol-2-yl)cyclohexyl)acetamide] | 176% | < 10 nM | – | –
O=C(Nc1ccc2cc(Cl)ccc2n1)[C@H]1CC[C@H](c2nnc(C3CNc4cc(Cl)ccc4O3)o2)CC1 (stereo partly drawn) [Compound 45, trans-4-(5-(6-chloro-3,4-dihydro-2H-benzo[b][1,4]oxazin-2-yl)-1,3,4-oxadiazol-2-yl)-N-(6-chloroquinolin-2-yl)cyclohexanecarboxamide] | 81.8% | 10 to 100 nM | – | –
O=C(COc1ccc(Cl)c(F)c1)NC[C@H]1CC[C@H](c2nnc(-c3ccc(Cl)cc3)o2)CC1 [Compound 3, trans-2-(4-chloro-3-fluorophenoxy)-N-((4-(5-(4-chlorophenyl)-1,3,4-oxadiazol-2-yl)cyclohexyl)methyl)acetamide] | 138% | 10 to 100 nM | – | –
O=C(N[C@H]1CC[C@H](c2nnc(-c3ccc(Cl)cc3)o2)CC1)c1cc2cc(Cl)ccc2o1 [Compound 6, trans-5-chloro-N-(4-(5-(4-chlorophenyl)-1,3,4-oxadiazol-2-yl)cyclohexyl)benzofuran-2-carboxamide] | 111% | < 10 nM | – | –
O=C(Nc1ccc2cc(Cl)ccc2n1)[C@H]1CC[C@H](c2nnc(-c3ccc4cc(Cl)ccc4n3)o2)CC1 [Compound 46, trans-N-(6-chloroquinolin-2-yl)-4-(5-(6-chloroquinolin-2-yl)-1,3,4-oxadiazol-2-yl)cyclohexanecarboxamide] | 11.8% | 10 to 100 nM | – | –
O=C(COc1ccc(Cl)c(F)c1)N[C@H]1CC[C@H](c2nnc([C@@H]3CNc4cc(Cl)ccc4O3)o2)CC1 (single isomer, unassigned) [Compound 42] | 79.9% | < 10 nM | – | –
O=C(COc1ccc(Cl)cc1)N[C@H]1CC[C@H](c2nnc(-c3ccc(Cl)cc3)o2)CC1 [Compound 8, trans-2-(4-chlorophenoxy)-N-(4-(5-(4-chlorophenyl)-1,3,4-oxadiazol-2-yl)cyclohexyl)acetamide] | – | – | 96.9% | < 10 nM
O=C(Nc1ccc2cc(Cl)ccc2n1)[C@H]1CC[C@H](c2nnc(-c3ccc(Cl)cc3)o2)CC1 [Compound 19, trans-4-(5-(4-chlorophenyl)-1,3,4-oxadiazol-2-yl)-N-(6-chloroquinolin-2-yl)cyclohexane-1-carboxamide] | – | – | 100% | 10 to 100 nM
O=C(N[C@H]1CC[C@H](c2nnc(COc3ccc(Cl)cc3)o2)CC1)c1ccc2cc(Cl)ccc2n1 [Compound 9, trans-6-chloro-N-(4-(5-((4-chlorophenoxy)methyl)-1,3,4-oxadiazol-2-yl)cyclohexyl)quinoline-2-carboxamide] | 204% | 10 to 100 nM | – | –
O=C(N[C@H]1CC[C@H](c2nnc(COc3ccc(Cl)cc3)o2)CC1)c1cnc(C(F)F)cn1 [Compound 16, trans-N-(4-(5-((4-chlorophenoxy)methyl)-1,3,4-oxadiazol-2-yl)cyclohexyl)-5-(difluoromethyl)pyrazine-2-carboxamide] | 115% | > 1000 nM | – | –
O=C(NCc1ccc2cc(Cl)ccc2n1)[C@H]1CC[C@H](c2nnc(-c3ccc(Cl)cc3)o2)CC1 [Compound 47, trans-4-(5-(4-chlorophenyl)-1,3,4-oxadiazol-2-yl)-N-((6-chloroquinolin-2-yl)methyl)cyclohexanecarboxamide] | 2% | > 1000 nM | – | –
O=C(N[C@H]1CC[C@H](c2nnc(Cc3ccc(Cl)cc3)o2)CC1)c1ccc2cc(Cl)ccc2n1 [Compound 239, 6-chloro-N-(trans-4-(5-(4-chlorobenzyl)-1,3,4-oxadiazol-2-yl)cyclohexyl)quinoline-2-carboxamide] | 197% | < 10 nM | – | –
O=C(N[C@H]1CC[C@H](c2nnc(Cc3ccc(Cl)cc3)o2)CC1)c1cc2cc(Cl)ccc2o1 [Compound 247, trans-5-chloro-N-(4-(5-(4-chlorobenzyl)-1,3,4-oxadiazol-2-yl)cyclohexyl)benzofuran-2-carboxamide] | 278% | < 10 nM | – | –
O=C(COc1ccc(Cl)c(F)c1)N[C@H]1CC[C@H](c2nnc(COc3ccc(Cl)c(F)c3)o2)CC1 [Compound 13, trans-2-(4-chloro-3-fluorophenoxy)-N-(4-(5-((4-chloro-3-fluorophenoxy)methyl)-1,3,4-oxadiazol-2-yl)cyclohexyl)acetamide] | 134% | < 10 nM | – | –
O=C(N[C@H]1CC[C@H](c2nnc(COc3ccc(Cl)cc3)o2)CC1)c1cc2cc(Cl)ccc2o1 [Compound 10, trans-5-chloro-N-(4-(5-((4-chlorophenoxy)methyl)-1,3,4-oxadiazol-2-yl)cyclohexyl)benzofuran-2-carboxamide] | 165% | < 10 nM | – | –
O=C(COc1ccc(Cl)c(F)c1)N[C@H]1CC[C@H](c2nnc(-c3ccc(Cl)c(F)c3)o2)CC1 [Compound 17, trans-2-(4-chloro-3-fluorophenoxy)-N-(4-(5-(4-chloro-3-fluorophenyl)-1,3,4-oxadiazol-2-yl)cyclohexyl)acetamide] | 105% | < 10 nM | – | –
O=C(COc1ccc(Cl)cc1)NC[C@H]1CC[C@H](c2nnc(-c3ccc(Cl)cc3)o2)CC1 [Compound 4, trans-2-(4-chlorophenoxy)-N-((-4-(5-(4-chlorophenyl)-1,3,4-oxadiazol-2-yl)cyclohexyl)methyl)acetamide] | – | – | 123% | > 1000 nM
O=C(Nc1ccc2cc(Cl)ccc2n1)[C@H]1CC[C@H](c2nnc([C@H]3C[C@@H](OC(F)(F)F)C3)o2)CC1 [Compound 48, trans-N-(6-chloroquinolin-2-yl)-4-(5-(cis-3-(trifluoromethoxy)cyclobutyl)-1,3,4-oxadiazol-2-yl)cyclohexanecarboxamide] | 22.4% | 10 to 100 nM | – | –
O=C(COc1ccc(Cl)c(F)c1)N[C@H]1CC[C@H](c2nnc(Cc3ccc(Cl)cc3)o2)CC1 [Compound 238, 2-(4-chloro-3-fluorophenoxy)-N-(trans-4-(5-(4-chlorobenzyl)-1,3,4-oxadiazol-2-yl)cyclohexyl)acetamide] | 74.6% | < 10 nM | – | –
O=C(NC[C@H]1CC[C@H](c2nnc(-c3ccc(Cl)cc3)o2)CC1)c1cc2cc(Cl)ccc2o1 [Compound 2, trans-5-chloro-N-((4-(5-(4-chlorophenyl)-1,3,4-oxadiazol-2-yl)cyclohexyl)methyl)benzofuran-2-carboxamide] | 136% | 100 to 1000 nM | – | –
O=C(COc1ccc(Cl)c(F)c1)N[C@H]1CC[C@H](c2nnc(Cc3ccc(Cl)c(F)c3)o2)CC1 [Compound 244, N-(trans-4-(5-(4-chloro-3-fluorobenzyl)-1,3,4-oxadiazol-2-yl)cyclohexyl)-2-(4-chloro-3-fluorophenoxy)acetamide] | 94% | < 10 nM | – | –
O=C(COc1ccc(Cl)c(F)c1)NN1CCC(c2nnc(COc3ccc(Cl)cc3)o2)CC1 [Compound 240, 2-(4-chloro-3-fluorophenoxy)-N-(4-(5-((4-chlorophenoxy)methyl)-1,3,4-oxadiazol-2-yl)piperidin-1-yl)acetamide] | 42.3% | < 10 nM | – | –
O=C(Nc1ccc2cc(Cl)ccc2n1)[C@H]1CC[C@H](c2nc(-c3ccc(Cl)cc3)cs2)CC1 [Compound 33, trans-4-(4-(4-chlorophenyl)thiazol-2-yl)-N-(6-chloroquinolin-2-yl)cyclohexanecarboxamide] | – | – | 11.4% | > 1000 nM
O=C(Nc1ccc2cc(Cl)ccc2n1)[C@H]1CC[C@H](c2nnc(C3CCC(F)(F)CC3)o2)CC1 [Compound 28, trans-N-(6-chloroquinolin-2-yl)-4-(5-(4,4-difluorocyclohexyl)-1,3,4-oxadiazol-2-yl)cyclohexanecarboxamide] | 23.8% | 100 to 1000 nM | – | –
